The text below walks through data of patent US6689381B2, “Liposomal benzoquinazoline thymidylate synthase inhibitor formulations” (OSI Pharmaceuticals, Inc., priority 2000, dated 2004).

Molecules are shown by their SMILES.

In this assay the test system is human colon tumor xenograft model (HCT-8, thymidine kinase (TK)-/-). As to the kind of experiment: HCT-8 xenograft, NX1843 dose schedule study and combinations with 5-FU, NX211 and GW1843 (Table 27). The format is in vivo, nude mice. On the procedure: Female Nu/Nu mice (18-24 g, 10-14 weeks old) were obtained from Harlan Sprague Dawley, and housed in microisolator filtration racks and maintained with filtered acidified water and sterile lab chow ad libitum. […] Animals were allowed to acclimate to their new environment for 1 week prior to tumor cell implantation. Tumors were established by injecting harvested tumor cells in a single subcutaneous site on the flank of the mice in the axillary region. The tumors were grown until approximately 200+/−50 mm^3 in size. The animals were then sorted according to body weight, grouped four animals/cage, and tattooed on the tail for permanent identification. Groups consisting of 8 tumor-bearing mice each were administered weekly doses of experimental agents by IV bolus injection through the tail vein. Tumor volumes were determined with vernier caliper measurements taken at right angles using the formula, (L×W^2/2) and body weights, were collected twice weekly. Data was plotted as % change in body weight vs. time in days, and % tumor volume increase vs. days.
T=(mean) time in days for treated group to reach cutoff size (2 grams)
C=(mean) time in days for control group to reach cutoff size (2 grams)
WC is the mean tumor weight of control group at time x
Wt is mean tumor weight of treated group at time x
% Regression=100 (Wo−Wi)/Wo; where Wo is the mean tumor weight for treated group at the initiation of treatment and Wi=the mean tumor weight for that group at time some time x after treatment.
In addition to these dose groups the free drug was dosed at 100 mg/kg on days 1-5, and repeated for a second week.

As for `O=c1[nH]cc(F)c(=O)[nH]1` [Lot 5-FU, 5-fluorourcil, reference compound], where the note is “100 mg/kg, QD1, 8”, the “% TGI” value is on record as 72%, the Cures is reported as 0 and the LCK is on record as 1.5. For the same molecule, under “100 mg/kg, QD1, 8, day 22”, the “% Regression day 22” value is 0%. Further, under “iv, NX1843 25 mg/kg d1,8, 15 mg/kg QD(1,3,5)×2 or 7.5 mg/kg QD(1-5)×2, GW1843 100 mg/kg d1-5 ×2, 5FU 100 mg/kg d1,8, NX211 6 mg/kg d1,8, combinations at same doses”, the “log cell kill (LCK)” value turned out to be 1.5.
